The results in this text go back to US20090023714A1, “COMBINED PREPARATION OF A THIAZIDE DIURETIC AND A LOOP DIURETIC” (HEXAL AG, priority 2005, published 2009).

Entries after “also recorded” stand apart in the source; their conditions may differ.

For data set [1], the system named is healthy volunteers. The data set is described as follows: Diuretic effects on urinary excretion of Na+, K+, Mg2+ and Ca2+ in healthy volunteers (monotherapy and combinations). In kind it is in vivo, human. The conditions noted are these: for Na+ excretion during the first 3 hrs, monotherapy: 10 mg TORA, 25 mg HCT, 50 mg TA; for total K+ excretion, monotherapy: usual doses, 0-24 hrs and sub-periods, FIG. 2b. The protocol:
(§1) The ethically approved trial was performed on 12 healthy volunteers (28-48years in age, 6 males, 6 females), who had given their written informed consent to the study. Prior to administration of a drug, the participants underwent a clinical check-up. The participants were kept on a standard diet, receiving a defined fluid (1.5 l/day) and salt intake (6 g NaCl; 100 mmol Na^+/day) three days before and throughout the study.
From that point of time, urine was collected following drug administration in 2 hour intervals until the 6th hour and then from the 6th to 9th hour, from the 9th to 12th hour and from the 12th to […]. An aliquot of the defined volume of the respective collection period was frozen until analyzed for Na^+, K^+, Cl^−, Ca^2+ Mg^2+ and creatinine using a “MODULAR” Analyzer (Roche Comp., Switzerland).
(§2) All data are expressed as mean values (±SEM). The diuretic-induced “net excretion” is defined as the difference between total excretion and control excretion (“baseline”) obtained for the respective period prior to treatment. The effect of diuretic monotherapy is compared with the combined treatment using ANOVA.

Data set [2] has as its system healthy volunteers. Put plainly: Dose-response studies of natriuretic effect in healthy volunteers. In kind it is in vivo, human. The conditions noted are these: for range of linear dose-responsiveness of natriuretic effect / dose at which the maximum natriuretic effect is reached: FIG. 1; for dose at which the maximum natriuretic effect is reached: net Na+ excretion for the duration of action, oral; for duration of action (time until baseline excretion is reached again): oral single dose. How it is done:
as §1
In accordance with earlier studies (35), urine was collected before the treatment period, i.e., from 24 hrs to 12 hrs and from 12 hrs to 0 hrs prior to oral drug administration (8 a.m.). From that point of time, urine was collected following drug administration in 2 hour intervals until the 6th hour and then from the 6th to 9th hour, from the 9th to 12th hour and from the 12th to […]. An aliquot of the defined volume of the respective collection period was frozen until analyzed for Na^+, K^+, Cl^−, Ca^2+ Mg^2+ and creatinine using a “MODULAR” Analyzer (Roche Comp., Switzerland).
as §2

For the compound `NS(=O)(=O)c1cc2c(cc1Cl)NCNS2(=O)=O` [HCT, hydrochlorothiazide], in the data set on healthy volunteers [1] (0-12 hrs, HCT alone versus HCT with 5 mg TORA, p<0.01), the “K+ excretion correlated with Na+ excretion (K+/Na+ ratio), 0-12 hrs” value was determined as 0.40. The “K+ excretion correlated with Na+ excretion (K+/Na+ ratio), 0-24 hrs” value in the data set with healthy volunteers [1] (0-24 hrs, HCT alone versus HCT with 5 mg TORA, p<0.01) stood at 0.43. In addition, in the data set on healthy volunteers [1] (FIG. 2a), the “Na+ excretion during the first 3 hrs, monotherapy” value is recorded as “higher Na^+ excretion than TA only during the first 3 hrs”. Further, in the data set on healthy volunteers [1] (FIG. 2c), the “K+/Na+ excretion ratio within the first three hours, monotherapy” value was “nearly triple of that of the loop diuretic”. Moreover, in the data set on healthy volunteers [1], the “total K+ excretion, monotherapy” value is “higher than that following administration of the loop diuretic”. In addition, in the data set with healthy volunteers [2], the “range of linear dose-responsiveness of natriuretic effect” value (shortened to “range”) is on record as “narrow range of almost linear dose-responsiveness”, the “dose at which the maximum natriuretic effect is reached” value is 25 mg and the “duration of action (time until baseline excretion is reached again)” value was 12 h. Further, in the data set with healthy volunteers [2] (during 12 hrs (time until baseline excretion is reached again)), the “cumulative Na+ excretion induced by 25 mg compared with 50 mg” value was “not significantly different”.

On to `Nc1nc(N)c2nc(-c3ccccc3)c(N)nc2n1` [TA, triamterene], for which, in the data set with healthy volunteers [1], the “total K+ excretion, monotherapy” value is listed as “less K^+ loss than HCT or TORA only for the 0-3 hrs period; also recorded: not superior to the loop diuretic”. Also, in the data set on healthy volunteers [2], the “range” value was “narrow range of almost linear dose-responsiveness” and the “dose at which the maximum natriuretic effect is reached” value is listed as 50 mg.

For the compound `Cc1cccc(Nc2ccncc2S(=O)(=O)NC(=O)NC(C)C)c1` [TORA, torasemide], in the data set with healthy volunteers [1] (10 mg TORA monotherapy, FIG. 2a), the “Na+ excretion during the 6-12 hrs and 12-24 hrs periods (rebound)” value is listed as “dropped below levels prior to drug administration”. Moreover, the “Na+ excretion during the first 3 hrs, monotherapy” value in the data set on healthy volunteers [1] (FIG. 2a) is recorded as “by far in the highest increase of Na excretion”. In the data set with healthy volunteers [1] (after the duration of action, Na+ excretion below baseline, FIG. 2c), the “K+/Na+ excretion ratio 6-24 hrs, monotherapy” value was “highest only after the duration of action of the loop diuretic”. The “Mg2+ excretion, monotherapy” value with healthy volunteers [1] (loop diuretic versus thiazide, FIG. 3) is reported as “less magnesiuretic than the thiazide”. Further, in the data set with healthy volunteers [1] (loop diuretic versus thiazide, FIG. 2d), the “Ca2+ excretion in relation to Na+ excretion, monotherapy” value was “higher for the loop diuretic than for the thiazide”. In the data set on healthy volunteers [2], the “range” value is reported as “broader range of linear dose-responsiveness” and the “duration of action (time until baseline excretion is reached again)” value is 6 h.
